Experimental data as given in patent US20040259096A1, “Receptor capture assay” (priority 2001, published 2004).

Key:
Ah receptor = assay: Receptor capture assay employing anti-ARNT magnetic microparticles; assay type: biochemical; details: 1 μl of 1 nM beta-naphthoflavone
Experimental: Activation of the Ah receptor with dose was performed in a microtiter strip containing 50 μl of Ah receptor preparation, 1 μl of 200 μg/ml biotinylated ARNT, and 1 μl of 1 nM beta-naphthoflavone and incubated for 1 hr at 30° C. To minimize non-specific interactions, 1-2 μg of salmon sperm DNA was added to the activated complex, along with NaCl to a final concentration of 60 mM. After 10 in room temperature, the nucleic acid-tracer (50 fmole) was added, and the reaction allowed to incubate for an additional 10 min at room temperature. Five μl of a 10% solution of microparticles coated with anti-ARNT antibody was added to each well and incubated for 30 min at room temperature on a Wallac microtiter plate shaker. The wells were washed using a using a LifeSep 96P (Dexter, Elk Grove Village, Ill.) magnet designed for separating magnetic particles in a microtiter plate format The strip was placed on the magnetic separator for three minutes. The beads had migrated to the side of the well by this time and the supernatant was removed by aspiration. The beads were washed four additional times with 150 μl of Wash Buffer B. The beads were captured, supernatant removed, and resuspended in the PCR reaction mix and amplified as in Example 2, B. The amplified product was analyzed by gel electrophoresis.

AhR = molecular target: T1, AhR (Cavia porcellus, UniProt Q6J287); assay: Receptor capture assay, real-time PCR, AhR derived from guinea pig; assay type: biochemical; design: The cytosol containing AhR heteromers was stored at; from tissue; host or cells: liver cytosol of Hartley guinea pigs
T1 sequence (Q6J287 1-846): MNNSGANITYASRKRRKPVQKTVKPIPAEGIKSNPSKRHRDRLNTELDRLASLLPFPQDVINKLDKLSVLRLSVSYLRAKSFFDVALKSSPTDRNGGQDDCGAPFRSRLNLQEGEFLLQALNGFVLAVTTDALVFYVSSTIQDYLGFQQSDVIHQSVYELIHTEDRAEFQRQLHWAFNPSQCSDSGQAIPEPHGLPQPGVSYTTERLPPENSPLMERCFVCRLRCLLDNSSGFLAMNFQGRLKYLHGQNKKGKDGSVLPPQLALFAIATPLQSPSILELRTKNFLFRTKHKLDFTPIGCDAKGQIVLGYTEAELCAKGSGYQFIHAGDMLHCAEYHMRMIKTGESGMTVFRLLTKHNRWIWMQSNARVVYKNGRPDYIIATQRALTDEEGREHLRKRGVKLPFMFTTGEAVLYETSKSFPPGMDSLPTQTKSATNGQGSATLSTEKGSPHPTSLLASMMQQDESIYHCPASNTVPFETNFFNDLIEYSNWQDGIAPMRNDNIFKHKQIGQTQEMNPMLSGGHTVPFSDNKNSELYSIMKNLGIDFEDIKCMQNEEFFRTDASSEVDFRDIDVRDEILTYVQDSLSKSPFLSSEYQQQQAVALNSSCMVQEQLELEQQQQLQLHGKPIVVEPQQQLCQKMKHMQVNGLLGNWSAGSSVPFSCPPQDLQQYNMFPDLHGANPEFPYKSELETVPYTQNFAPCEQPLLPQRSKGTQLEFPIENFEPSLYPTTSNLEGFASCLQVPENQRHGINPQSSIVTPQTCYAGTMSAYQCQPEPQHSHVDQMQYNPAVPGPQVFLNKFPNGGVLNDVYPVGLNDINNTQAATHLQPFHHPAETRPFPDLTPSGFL
Experimental: A set of calibrators consisting of 5000, 2500, 1250, 626, 313, 156, and 78 parts per trillion (ppt or pg/ml) 2,3,7,8-tetrachlorodibenzo-p-dioxin (TCDD) was prepared in methanol. In addition to TCDD a set of calibrators for AhR agonist, beta-naphthoflavone (BNF) was prepared and analyzed in the assay. Separately, 25 ul of 1:50,000 dilution of 10 uM stock nucleic acid-tracer was added per 1 ml of rodent cytosol, which was the source of AhR, and was aliquoted into glass tubes. The standards were diluted 1:20 into 50-100 ul of rodent cytosol, and incubated for 1-2 hr at room temperature to 37° C. Following incubation, 40 to 100 ul of the reaction was transferred to each well of the antibody-coated Capture Strip and incubated on a shaking platform for 30 min to 1 hr at room temperature. The Capture Strips were washed 5 times with Wash Buffer B, and aspirated; optionally soaking wells for 30 sec-5 min with wash buffer during each cycle. Taqman® Universal PCR Master Mix, primers, and Taqman® probe (Applied Biosystems, Calif.) were added, and adhesive cover applied. PCR was performed and analyzed using an ABI PRISM® 7700, using default settings: 50° C., 2 min, 95° C. […] A threshold cycle (Ct) was determined for each reaction The Ct represents the PCR cycle at which an increase in reporter fluorescence above baseline signal can first be detected.

`O=c1cc(-c2ccccc2)oc2ccc3ccccc3c12` [BNF, beta-naphthoflavone] was tested, and the “amplified DNA over DMSO vehicle controls (gel electrophoresis)” value (Ah receptor) was “significant increase in DNA”.
`Clc1cc2c(cc1Cl)Oc1cc(Cl)c(Cl)cc1O2` [TCDD, 2,3,7,8-tetrachlorodibenzo-p-dioxin] was tested, and the “slope of dose-response curve” value (AhR) was −1.042 and the “EC50 of dose-response curve” value (AhR; pg of TCDD in the assay) was 2.6 pg.
